Results taken from paper PMC11509080, “Discovery of Kuraridin as a Potential Natural Anti-Melanogenic Agent: Focusing on Specific Target Genes and Multidirectional Signaling Pathways” (International Journal of Molecular Sciences, 2024).

How the values were obtained:
tyrosinase [1] = tested on: tyrosinase; set-up: method as in Deri et al. (2016) [15]; details: ref Deri et al. (2016) [15], cited from earlier work
B16F10 melanoma cells [2] = experiment: Cellular melanin content (extracellular and intracellular) in α-MSH-induced cells; type: cell-based, Murine
Protocol: B16F10 melanoma cells (7.4 × 10⁴ cells/well) were seeded in a 6-well plate. […] The extracellular melanin content was measured by direct estimation of the absorbance of the cell-free culture medium at 405 nm. For the measurement of intracellular melanin content, cell pellets were dissolved in 1 N NaOH at 95 °C for 1 h. The absorbance of the resulting solution was measured at 405 nm using a microplate reader [Synergy H(1)].

B16F10 cells = experiment: Cellular tyrosinase activity (L-DOPA oxidation) in α-MSH-induced cells; type: cell-based, Murine; details: for Intracellular tyrosinase activity: α-MSH-induced B16F10 cells
Protocol: Tyrosinase activity was estimated by measuring the rate of L-DOPA oxidation. […] The cells were washed with cold PBS, and cell lysis buffer was added for lysis at 4 °C for 1 h on ice and centrifuged at 13,000 rpm for 20 min at […] to obtain supernatants. Protein concentration was quantified at 50 µg using a BCA protein assay kit. […] Absorbance was measured at 490 nm using a microplate reader.

tyrosinase [3] = target: T1, tyrosinase (Agaricus bisporus, UniProt C7FF04); experiment: Enzyme kinetic analysis of tyrosinase with L-DOPA (Lineweaver-Burk, Dixon plots); type: biochemical; details: substrate L-DOPA
T1 sequence (G1K3P4 entry or part of it): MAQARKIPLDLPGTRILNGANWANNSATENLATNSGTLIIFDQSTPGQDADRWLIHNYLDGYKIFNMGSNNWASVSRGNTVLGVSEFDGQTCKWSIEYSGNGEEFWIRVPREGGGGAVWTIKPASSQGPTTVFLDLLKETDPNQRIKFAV
T1 sequence (C7FF04 2-392): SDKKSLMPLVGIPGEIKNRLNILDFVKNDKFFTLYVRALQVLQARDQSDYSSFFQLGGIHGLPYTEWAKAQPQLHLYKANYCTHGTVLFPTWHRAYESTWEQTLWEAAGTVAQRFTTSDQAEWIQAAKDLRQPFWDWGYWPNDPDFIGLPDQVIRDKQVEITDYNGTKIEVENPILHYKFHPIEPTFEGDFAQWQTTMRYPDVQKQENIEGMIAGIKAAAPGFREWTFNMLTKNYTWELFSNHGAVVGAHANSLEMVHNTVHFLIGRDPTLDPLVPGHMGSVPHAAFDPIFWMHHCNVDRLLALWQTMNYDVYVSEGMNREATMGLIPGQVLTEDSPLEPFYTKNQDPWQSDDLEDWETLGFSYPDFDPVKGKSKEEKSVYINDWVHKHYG
Protocol: (§1) Enzyme kinetics were analyzed using Lineweaver–Burk and Dixon reciprocal plots of the reaction rate and substrate concentration to evaluate the effect of the sample on the affinity of the substrate and enzyme. The tyrosinase concentration was kept constant at 200 U/mL, whereas the substrate (L-tyrosine/L-DOPA) concentration varied between 0.5 and 2.0 mM. The reaction was similar to the anti-tyrosinase assay described above; 100 µL of sample solution was added, followed by 100 µL of tyrosinase (200 units/mL) after incubation at 25 °C. The substrate was then added to the wells and mixed thoroughly, and kinetic measurements of the solution were performed at a wavelength of 475 nm.

tyrosinase [4] = target: T1, tyrosinase; experiment: Enzyme kinetic analysis of tyrosinase with L-tyrosine (Lineweaver-Burk, Dixon plots); type: biochemical; details: substrate L-tyrosine
Protocol: as §1

B16F10 melanoma cells [5] = experiment: Cell viability, CCK-8 assay; type: cell-based, Murine; details: 0.1–5 μM, 72 h
Protocol: Murine B16F10 melanoma cells (Korean Cell Line Bank, Seoul, Republic of Korea) were cultured in DMEM containing 10% FBS and 1% penicillin-streptomycin at 37 °C in the humidified atmosphere of a 5% CO2 incubator. The cells were cultured until 100% confluent for all experiments.
Cell viability was assessed using the CCK-8 kit. Cells were incubated in 96-well plates at a density of approximately 3 × 10^3 cells/well. After 24 h incubation, a kuraridin concentration (0.1–10 µM) of samples or medium was added to B16F10 cells at 72 h of incubation. Absorbance was monitored at 450 nm using a microplate reader (Synergy H(1), Biotek, VT, USA).

[6] = α-MSH-induced B16F10 cells, 0.1–5 μM, dose-dependent
[7] = B16F10 cells, α-MSH stimulation 0.1 μM, 72 h, control = 100%

O=c1cc(CO)occ1O [Kojic acid]
Inhibition Type L-DOPA (tyrosinase [1]; substrate L-DOPA): Mixed ^2 | Inhibition Type L-Tyrosine (tyrosinase [1]; substrate L-tyrosine): Mixed ^2

C=C(C)[C@H](CC=C(C)C)Cc1c(O)cc(OC)c(C(=O)/C=C/c2ccc(O)cc2O)c1O [Kuraridin, kuraridin]
Extracellular melanin production (B16F10 melanoma cells [2]; [6]): significantly attenuated | Intracellular melanin production (B16F10 melanoma cells [2]; [6]): significantly attenuated | Intracellular melanin content lower than the untreated control (B16F10 melanoma cells [2]; α-MSH-treated B16F10 cells, 1 µM): 15% | Intracellular tyrosinase activity (B16F10 cells; all tested concentrations (0.1–5 μM), vs α-MSH only, p < 0.001): significantly suppressed tyrosinase activity | Intracellular tyrosinase activity (B16F10 cells; lowest concentration 0.1 μM): reached control levels | Inhibition Type L-DOPA (tyrosinase [3]): Competitive | Inhibition Type L-DOPA (tyrosinase [3]; listed as kuraridin): competitive inhibition | Inhibition Type L-Tyrosine (tyrosinase [4]): Non-competitive | Cytotoxicity (cell viability) (B16F10 melanoma cells [5]): without cytotoxicity

C=C(C)[C@H](CCC(C)(C)O)Cc1c(O)cc(OC)c2c1O[C@H](c1ccc(O)cc1O)CC2=O [Kurarinol, kurarinol]
Inhibition Type L-Tyrosine (tyrosinase [4]): Non-competitive

C=C(C)[C@H](CC=C(C)C)Cc1c(O)cc(O)c2c1O[C@H](c1ccccc1O)CC2=O [Kushenol A, kushenol A]
Inhibition Type L-Tyrosine (tyrosinase [4]): Non-competitive

alpha-melanocyte-stimulating hormone [α-MSH, reference compound]
Extracellular melanin content (B16F10 melanoma cells [2]; [7]): approximately 132% | Intracellular melanin content (B16F10 melanoma cells [2]; [7]): ~127% | Increase of intracellular tyrosinase activity compared with control group (B16F10 cells; B16F10 cells, α-MSH 100 nM, 72 h): 1.8 fold
